Results: US8163709B2, “TAK1-D mediated induction of cell death in human cancer cells by specific sequence short double-stranded RNAS” (Board of Regents of the University of Texas System, priority 2008, dated 2012)
Entries after “also recorded” stand apart in the source; their conditions may differ. d = 2'-deoxy (DNA); r = 2'-OH (RNA)

Assays:
[1] = test system: TLK1; assay: TLK1 post-transcriptional silencing in HeLa cells (Western blot); format: cell-based, human; conditions: 48 h after transfection
Procedure: In order to test whether dsRNA molecules show the same cellular uptake and stability the efficiency of these molecules to post-transcriptionally silence the expression of TLK1 was determined as si6 as well as si5 siRNA are directed against the mRNA of this protein. […] As a loading control the unchanged expression levels of TAK1-A/B and 3-tubulin are shown in the two lower panels.

[2] = molecular target: T1, TAK1-D (Homo sapiens, UniProt O43318); assay: TAK1-D autophosphorylation on T184/T187 in H460 cells (Western blot, phospho-specific antibody); format: cell-based; parameters: endogenous in cells; host or cells: NCI-H460; conditions: for activating autophosphorylation (activation) of TAK1-D on T184 and T187: RNA transfected (20 nM), Western blot; for activating autophosphorylation of TAK1-D on T184 and T187: H460, ribotoxins 90 minutes (same concentrations)
T1 sequence (O43318 1-491 isoform O43318-4): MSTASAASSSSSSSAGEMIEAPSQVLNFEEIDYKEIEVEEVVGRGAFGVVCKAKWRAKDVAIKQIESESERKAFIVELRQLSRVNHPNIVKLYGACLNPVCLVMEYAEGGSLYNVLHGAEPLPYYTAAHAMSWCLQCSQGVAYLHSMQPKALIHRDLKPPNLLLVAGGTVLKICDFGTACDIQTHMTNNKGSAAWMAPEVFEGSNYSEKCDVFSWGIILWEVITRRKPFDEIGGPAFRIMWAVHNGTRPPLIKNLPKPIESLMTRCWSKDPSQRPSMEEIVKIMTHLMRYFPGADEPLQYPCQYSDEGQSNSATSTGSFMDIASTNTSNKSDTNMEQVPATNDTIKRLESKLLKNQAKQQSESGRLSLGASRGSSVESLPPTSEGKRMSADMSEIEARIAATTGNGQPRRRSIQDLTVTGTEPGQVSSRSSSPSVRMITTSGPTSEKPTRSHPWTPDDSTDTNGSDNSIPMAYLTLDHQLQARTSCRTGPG
Procedure: In an effort to identify the MAPKKK responsible for the activation of the p38 MAP kinase and SAPK/JNK pathway, several of these kinases were screened for siRNA si5 mediated activation.
Immunoblot analysis. Western blotting was performed exactly as described previously (Kodym et al., 2008b). In addition to the primary antibodies previously mentioned (Kodym et al., 2008b) the following antibodies were used: S6 ribosomal protein (Cell Signaling #2217), DPM1 (Santa Cruz #sc-15836, Santa Cruz, Calif., USA), and Histone H3 (Cell Signaling #9715).

[3] = test system: TAK1-A; assay: Autophosphorylation of the other (long) Tak1 splicing variants in H460 cells; format: cell-based, human; conditions: 10 ng/ml, 30 min
Source text: In contrast only the long form (TAK1-A) is able to activate the NFκB pathway through phosphorylation of IKKα/β.

[4] = test system: NF-κB; assay: NF-κB activation in H460 cells (EMSA, IKKα/β phosphorylation); format: cell-based, human; conditions: 10 ng/ml, 30 min, listed as IL1β
Procedure: EMSA. Electrophoretic mobility shift assays for NFκB were performed as described previously (Kurland et al., 2001) using 3.5 μg of nuclear protein for each reaction.
FIG. 16B illustrates the effect of dominant-negative TAK1-D/K63W on dsRNA si5 induced cell death. […] As a slight growth inhibition of si5 transfected H460-K63W cells can be observed in FIG. 16B it is interesting to ask whether this is caused by an incomplete suppression of TAK1-D activity or by activation of other dsRNA-dependent stress pathways. To answer this question, the activation of the transcription factor NF-κB by dsRNA si5 was tested, as it well established that dsRNA triggered activation of PKR (Zamanian-Daryoush et al., 2000), TLR3 (Jiang et al., 2003), and RIG1/Mda-5 (Hiscott et al., 2006) leads to a downstream activation of NF-κB.

[5] = test system: p38 MAP kinase pathway; assay: Activation of the p38 MAP kinase pathway in H460 cells (Western blot); format: cell-based, human
Source text: Both siRNAs were directed against the mRNA of the same gene TLK1.

[6] = test system: SAPK/JNK pathway; assay: Activation of the SAPK/JNK pathway in H460 cells (Western blot); format: cell-based, human; conditions: H460, ribotoxins 90 minutes (same concentrations)
[7] = test system: H460 cells; assay: Survival assay of H460 cells, Crystal Violet staining

Molecule: OmeS: si5 sequence with several bases of the sense strand 2′-O-methyl modified (SEQ ID NO:25 and 26) (chain 1 GGCUUUUGACCUUUAUGAAUU; chain 2 TTCCGAAAACUGGAAAUACUU; 2'-O-methyl on sense strand bases, chemistry not fully specified; one strand is listed 3' to 5')
- expression level of TLK1 [1]: very significant reduction in the expression of TLK1

Molecule: si5s: si5 with two ribonucleotides in the middle of the molecule deleted (SEQ ID NO:17) (GGCUUUUGACUUAUGAATT; siRNA; sugars from the 5' end r17 d2, backbone not given here)
- expression level of TLK1 [1]: lack of post-transcriptional silencing of TLK1
- activating autophosphorylation (activation) of TAK1-D on T184 and T187 ([2]; H460 cells): completely abolished its ability to activate Tak1-D

Molecule: IL1: interleukin 1, positive control activating the long TAK1 variant via IL-1 receptor
- autophosphorylation of the long splicing variant of Tak1 [3]: autophosphorylation of the large splicing variant of Tak1 (A and B)
- autophosphorylation of the long splicing variant of Tak1 ([3]; listed as IL1β): activates exclusively the long form of TAK1 (TAK1-A)
- activation of the NFκB cascade (IKKα/β phosphorylation) [4]: activates the NFκB pathway
- activation of the p38 MAP kinase pathway (MKK3/6) ([5]; H460 cells, 10 ng/ml IL1): activating the p38 MAP kinase pathway (MKK3/6)
- activation of TAK1-D ([2]; H460 cells, 10 ng/ml IL-1): does not activate TAK1-D

Molecule: OmeD: si5 sequence with 2′-O-methyl on both strands (SEQ ID NO:23 and 24) (chain 1 GGCUUUUGACCUUUAUGAAUU; chain 2 UUCCGAAAACUGGAAAUACUU; siRNA; 2'-O-methyl at dot-marked bases on both strands, pattern not given here; one strand is listed 3' to 5')
- expression level of TLK1 [1]: very significant reduction in the expression of TLK1
- activating autophosphorylation (activation) of TAK1-D on T184 and T187 ([2]; H460 cells): no activation of Tak1-D could be detected

Molecule: COc1ccc(C[C@H](N)C(=O)N[C@H]2[C@@H](O)[C@H](n3cnc4c(N(C)C)ncnc43)O[C@@H]2CO)cc1 [Puromycin, reference compound]
- activating phosphorylations of SAPK/JNK and its upstream kinase MKK4 [6]: induced activating phosphorylations
- activating phosphorylations of p38 MAP kinase and its upstream kinases MKK3/6 [5]: induced activating phosphorylations
- activating autophosphorylation of TAK1-D on T184 and T187 [2]: led to an activating autophosphorylation of TAK1-D
- activating autophosphorylation of TAK1-D on T184 and T187 ([2]; listed as puromycin): induce an activating TAK1-D phosphorylation

Molecule: C[C@@H]1C[C@@H]([C@H](O)CC2CC(=O)NC(=O)C2)C(=O)[C@@H](C)C1 [Cycloheximide]
- activating phosphorylations of SAPK/JNK and its upstream kinase MKK4 [6]: induced activating phosphorylations
- activating phosphorylations of SAPK/JNK and its upstream kinase MKK4 ([6]; listed as cycloheximide): induce an activation of p38 MAP kinase and SAPK/JNK
- activating phosphorylations of p38 MAP kinase and its upstream kinases MKK3/6 [5]: induced activating phosphorylations; also recorded: induce an activation of p38 MAP kinase and SAPK/JNK
- activating autophosphorylation of TAK1-D on T184 and T187 [2]: No such activation was detectable

Molecule: si6: control 21-mer siRNA against TLK1 mRNA: GGGUGGAAAUGGCUCAAGUtt (SEQ ID NO: 4) / gtCCCACCUUUACCGAGUUCA (SEQ ID NO: 5) (sense GGGUGGAAAUGGCUCAAGUTT; antisense GTCCCACCUUUACCGAGUUCA; Artificial primer) [reference compound]
- cytotoxicity, Crystal Violet ([7]; H460, concentration range tested (up to 20 nM), 48 h): does not show any significant cytotoxicity

Molecule: si5OMeA: si5 sequence with U and G 2′-O-methylated in the antisense strand only (SEQ ID NO:27 and 28) (chain 1 GGCUUUUGACCUUUAUGAATT; chain 2 UUCCGAAAACUGGAAAUACUU; 2'-O-methyl U and G in antisense strand, chemistry not fully specified; one strand is listed 3' to 5')
- expression level of TLK1 [1]: very significant reduction in the expression of TLK1

Molecule: si5l: si5 extended by adding 2 ribonucleotides (SEQ ID NO:18) (GGCUUUUGACCUGUUUAUGAATT; siRNA; sugars from the 5' end r21 d2, backbone not given here)
- expression level of TLK1 [1]: lack of post-transcriptional silencing of TLK1
- activation of the p38 MAP kinase pathway (phosphorylation of MKK3/6, p38 MAPK) ([5]; H460 cells, 20 nM RNA, 2-6 h): small activation of Tak1-D and p38 MAPK could still be observed
- activating autophosphorylation (activation) of TAK1-D on T184 and T187 ([2]; H460 cells): significantly reduced its activity

Molecule: AU: dsRNA with alternating A and U bases (control, SEQ ID NO:21 and 22) (chain 1 AUAUAUAUAUAUAUAUAUATT; chain 2 TTUAUAUAUAUAUAUAUAUAU; chemistry not given here) [reference compound]
- activating autophosphorylation (activation) of TAK1-D on T184 and T187 ([2]; H460 cells): does not activate the TAK1-D pathway

Molecule: CN(CC[C@H](N)CC(=O)N[C@H]1C=C[C@H](n2ccc(N)nc2=O)O[C@@H]1C(=O)O)C(=N)N [Blasticidin S]
- activating phosphorylations of SAPK/JNK and its upstream kinase MKK4 [6]: induced activating phosphorylations
- activating phosphorylations of SAPK/JNK and its upstream kinase MKK4 ([6]; listed as blasticidin S): induce an activation of p38 MAP kinase and SAPK/JNK
- activating phosphorylations of p38 MAP kinase and its upstream kinases MKK3/6 [5]: induced activating phosphorylations; also recorded: induce an activation of p38 MAP kinase and SAPK/JNK
- activating autophosphorylation of TAK1-D on T184 and T187 [2]: No such activation was detectable

Molecule: shRNA: short hairpin RNA containing the si5 sequence, in vitro transcribed with T7 RNA polymerase (SEQ ID NO:20) (GGCUUUUGACCUUUAUGAAUUAAUUCAUAAAGGUCAAAAGCC; siRNA; RNA, phosphodiester; hairpin)
- cell death, crystal violet ([7]; H460, 48 hours after transfection, shRNA experiment): led to cell death

Molecule: CN[C@@H]1[C@@H](O)[C@@H](O[C@@H]2[C@@H](O)[C@H](O[C@H]3O[C@H]([C@@H](C)O)[C@@H](O)[C@H](O)[C@H]3N)[C@@H](N)C[C@H]2N)OC[C@]1(C)O [G418]
- activating phosphorylations of SAPK/JNK and its upstream kinase MKK4 [6]: exception
- activating phosphorylations of p38 MAP kinase and its upstream kinases MKK3/6 [5]: exception

Molecule: si5d: si5 with one U of the homopolymeric stretch changed to a C (SEQ ID NO:19) (GGCUUCUGACCUUUAUGAATT; siRNA; sugars from the 5' end r19 d2, backbone not given here)
- expression level of TLK1 [1]: very significant reduction in the expression of TLK1
- activating autophosphorylation (activation) of TAK1-D on T184 and T187 ([2]; H460 cells): significantly reduced the capacity of the molecule to activate TAK1-D
